According to patent US20060159639A1, “Pseudo body odor composition and perfume composition for inhibiting body odor” (priority 2003, published 2006):
Where two headings read alike, the source gives them in different places.

Test: Suppression test of Experimental Example 1: masking and harmonizing effect in a cup, four expert panelists;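 for harmonizing: score 1 means in harmony 0 indefinite and −1 not in harmony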
Method: In the present invention, the selection of the above component (I), component (II) and component (III) was carried out as follows. That is, one of the pseudo body odor compositions mentioned above and a target fragrance component were mixed and left at room temperature for 30 minutes. Thereafter, evaluations of the masking and harmonizing effects to the acid odor were carried out by four expert panelists.
After 30 minutes, a hole of about 1 cm in diameter was formed in the aluminum foil and the investigations of masking effect and the harmonizing effect were carried out according to following evaluation criteria by four expert panelists.
3: Excellent in the masking.
2: Substantially excellent in the masking.
1: Slightly sensible of the body odor (sweat odor and armpit odor).
0: Sensible of the body odor (sweat odor and armpit odor) (insufficient in the masking)

[1] = 200 μl pseudo body odor composition of Example 4 and 10 μl perfume on filter papers in sealed about 500 ml cup, after 30 minutes, four expert panelists, scale 0-3
[2] = 200 μl pseudo body odor composition of Example 4 and 10 μl perfume on filter papers in sealed about 500 ml cup, after 30 minutes, four expert panelists, scale −1 to 1

Molecule	Masking [1]	Harmonizing [2]	Harmonizing	Masking [points]
c1ccc2[nH]ccc2c1 [Indole]	1.5 points	−1	–	–
CC(=O)C1(C)CC2=C(CCCC2(C)C)CC1C (centres unmarked) [Iso E super, 7-acetyl-1,2,3,4,5,6,7,8-octahydro-1,1,6,7-tetramethyl naphthalene]	1	−1	–	–
CC(C)Cc1ccc2ncccc2c1 [Isobutyl quinoline]	2	1	–	–
CC1=CC(C)C(C=O)C(C)C1 (centres unmarked) [Isocyclocitral, trimethyl cyclohexene carbalehyde]	2.5 points	1	–	–
CCCCCC1COCCC1OC(C)=O (centres unmarked) [Jasmal, 3-pentyl tetrahydropyranyl acetate]	1	−1	–	–
CC(=O)C(C)=C(C)C(C)C(C)(C)C (centres unmarked) [Koavone, ethylene tetramethyl heptanone]	–	–	1	2.5
CC(C)(O)CCCC1=CCC(C=O)CC1 (centres unmarked) [Kovanol, 4(3)-(4-hydroxy-4-methylpentyl)-3-cyclohexene-1-carboxy aldehyde]	1	0	–	–
CC(C)=C[C@@H]1C[C@H](C)CCO1 [L-Rose oxide]	3	1	–	–
CCC(=CCC1CC=C(C)C1(C)C)CO (centres unmarked) [Levosandol, 2-ethyl-4-(2,2,3-trimethyl-3-cyclopentene-1-yl)-2-butene-1-ol]	2.5 points	1	–	–
CC(C=O)Cc1ccc(C(C)(C)C)cc1 (stereo not drawn) [Lilial, p-tert-butyl-α-methyl hydrocinnamic aldehyde]	–	0	–	–
C=CC(C)(O)CCC=C(C)C (centres unmarked) [Linalool]	1	0	–	–
C=CC(C)(CCC=C(C)C)OC(C)=O (centres unmarked) [Linalyl acetate]	1	−1	–	–
CC(C)[C@@H]1CC[C@@H](C)CC1=O [Mentone]	3	1	–	–
COC(=O)c1ccccc1N [Methyl anthranilate]	2.5 points	1	–	–
COC(=O)c1ccccc1 [Methyl benzoate]	3	1	–	–
CCCCCC1C(=O)CCC1CC(=O)OC (centres unmarked) [Methyl dihydrojasmonate]	2	1	–	–
CC(=O)CCC=C(C)C [Methyl heptenone]	3	1	–	–
COC(=O)Cc1ccccc1 [Methyl phenyl acetate]	2.5 points	1	–	–
O=C1CCCCCCCCCCCC(=O)OCCO1 [Musk T, ethylene brassylate]	0.5 points	−1	–	–
CC(C)[C@H]1CC[C@@H](CO)CC1 [Myol, cis-p-isopropylcyclohexyl methanol]	1	−1	–	–
CC(C)=CCCC1=CCC(C=O)CC1 (centres unmarked) [Myracaldehyde, 4-(4-methyl-3-pentenyl)-3-cyclohexene-1-carbaldehyde]	1.5 points	0	–	–
CCCCCCCCC=O [Nonanal]	1.5 points	−1	–	–

Molecule	Masking [1]	Harmonizing [2]	Harmonizing	Masking [points]
CCCCCCCC=O [Octanal]	3	1	–	–
O=C1CCCCCCCCOCCCCCCO1 [Oxalide, 10-oxa-16-hexadecanolide]	0	−1	–	–
O=CCc1ccccc1 [Phenyl acetoaldehyde]	3	1	–	–
COC(Cc1ccccc1)OC [Phenylactoaldehyde dimethylacetal]	2	1	–	–
CC(=O)OCCc1ccccc1 [Phenylethyl acetate]	2.5 points	1	–	–
OCCc1ccccc1 [Phenylethyl alcohol]	2.5 points	1	–	–
O=C(Cc1ccccc1)OCCc1ccccc1 [Phenylethyl phenyl acetate]	2	0	–	–
O=C(OCCc1ccccc1)c1ccccc1O [Phenylethyl salicylate]	1	−1	–	–
CC(=O)CCc1ccc(O)cc1 [Raspberry ketone, 4-(4-hydroxyphenyl)-2-butanone]	0.5 points	−1	–	–
CC(C)=CC1CC(C)CCO1 (centres unmarked) [Rose oxide]	3	1	–	–
CC(=O)OC(c1ccccc1)C(Cl)(Cl)Cl (centres unmarked) [Rosephenone, trichloromethyl phenyl carbinyl acetate]	1.5 points	0	–	–
CC(=CCC1CC=C(C)C1(C)C)CO (centres unmarked) [Sandalmysore core, 2-methyl-4-(2,2,3-trimethyl-3-cyclopentene-1-yl)-2-butene-1-ol]	2.5 points	1	–	–
CC(=O)OC(C)c1ccccc1 (centres unmarked) [Styralyl acetate]	3	1	–	–
CC(=O)OC(C)(C)C1CC=C(C)CC1 (centres unmarked) [Terpinyl acetate]	2	0	–	–
CCC(C)CCCC(C)(C)O (centres unmarked) [Tetrahydromyrcenol]	2	0	–	–
CCOC(=O)C1C(C)CCCC1(C)C (centres unmarked) [Thesaron, ethyl 2,2,6-trimethylcyclohexane carboxylate]	2	0	–	–
Cc1ccc(C(C)C)c(O)c1 [Thymol]	1	−1	–	–
CC(=O)OC1CC2CC1C1CC=CC21 (centres unmarked) [Tricyclodecenyl acetate]	1.5 points	0	–	–
CCCCCCCCCCC=CC#N [Tridecene-2-nitrile]	1.5 points	0	–	–
CC1=CC(C)C(C=O)CC1 (centres unmarked) [Tripral, Dimethyl tetrahydrobenzaldehyde]	3	1	–	–
CC(=O)C1=C(C)[C@@H]2C[C@@]3(C1)[C@H](C)CC[C@H]3C2(C)C [Woodyflor, acetylcedrene]	1.5 points	−1	–	–
CC/C=C\CCOC(C)=O [cis-3-Hexenyl acetate]	3	1	–	–

Molecule	Masking [1]	Harmonizing [2]	Harmonizing	Masking [points]
CC/C=C\CCOC(=O)c1ccccc1O [cis-3-Hexenyl salicylate]	2	1	–	–
CC/C=C\CC1=C(C)CCC1=O [cis-Jasmone]	1	−1	–	–
CC(C)[C@@H]1CC[C@@H](C)C[C@H]1O [l-Menthol]	1	−1	–	–
COc1ccc(C)cc1 [p-Cresyl methyl ether]	3	1	–	–
CC(C)(C)C1CCC(O)CC1 (centres unmarked) [p-tert-Butylcyclohexanol]	1.5 points	0	–	–
CC(=O)OC1CCC(C(C)(C)C)CC1 (centres unmarked) [p-tert-Butylcyclohexyl acetate]	1.5 points	−1	–	–
CC(C)(O)Cc1ccccc1 [α,α-Dimethylphenylethyl, α,α-dimethyl phenylethyl alcohol]	0.5 points	−1	–	–
C/C=C\C(=O)C1C(C)=CCCC1(C)C (stereo not drawn) [α-Damascone]	2	0	–	–
C=CCCC(=O)C1=CCCC(C)(C)C1 [α-Dynascone, 1-(5,5-dimethyl-cyclohexene-1-yl)-4-pentene-1-one]	3	1	–	–
CCCCCCC(C=O)=Cc1ccccc1 [α-Hexyl cinnamic aldehyde]	–	−1	–	–
C/C=C/C(=O)C1=C(C)CCCC1(C)C [β-Damascone]	2	1	–	–
CC(=O)/C=C/C1=C(C)CCCC1(C)C [β-Ionone]	1.5 points	−1	–	–
COc1ccc2ccccc2c1 [β-Naphthol methyl ether]	–	–	1	–
CCCCCCC1CCC(=O)O1 (centres unmarked) [γ-Decalactone]	2.5 points	1	–	–
CC(=O)/C(C)=C/C1C(C)=CCCC1(C)C (centres unmarked) [γ-Methylionone]	2	1	–	–
CCCCCC1CCC(=O)O1 (centres unmarked) [γ-Nonalactone]	2.5 points	1	–	–
CCCCCCCC1CCC(=O)O1 (centres unmarked) [γ-Undecalactone]	–	–	1	–
C/C=C/C(=O)C1C(C)C=CCC1(C)C (centres unmarked) [δ-Damascone]	1.5 points	0	–	–
Methyl naphthyl ketone	1.5 points	−1	–	–
Methylionone	2	1	–	–
Methylionone soap	2	1	–	–
isocamphyl cyclohexanol [Santalex]	0.5 points	−1	–	–
